Reference: patent publication US20240158370A1, “CK1 alpha AND DUAL CK1 alpha / GSPT1 DEGRADING COMPOUNDS” (Innovo Therapeutics, Inc., priority 2022, published 2024)

Experiments:
GSPT1 = GSPT1 (Homo sapiens, UniProt P15170+Q96SW2); test: HiBiT degradation assay, GSPT1, Procedure A; type: cell-based; design: HiBit-GSPT1 KI HEK293(LgBit) Cells; host or cells: HEK293(LgBit) knock-in cells; conditions: six hours incubation
Experimental: (§1) Compounds were spotted onto Cornin 384-Well, Cell Culture-Treated, Flat-Bottom, Low Flange Microplate (Fisher Scientific, Catalog #07-201-013) using a Tecan D300e digital dispenser. Ten-point dose response curves spanning from 10 μM to 0.005 μM with a 0.1% DMSO tolerance were used.
(§2) Cells were dissociated from tissue 182 cm^2 Tissue Culture Flask (CellTreat Catalog #229351) by washing the cells with PBS (Fisher Scientific Catalog #BP3994) followed by dissociation with Trypsin-EDTA (0.25%) (Thermo Scientific Catalog #25200056). Trysin was neutralized and cells were resuspended with DMEM+10% FBS. Cells were centrifuged for 5 minutes at 1200 RPMs. Cell culture media was aspirated off and cells were resuspended with DMEM+10% FBS. Cell density was determined using a Denovix CellDrop BF cell counter. Cell density was adjusted to 1×10^6 cells/ml. 40 μl of cells was added to compound treated tissue culture plates and incubated for six hours at 37° C. After six hours, cell culture plates were removed from tissue culture incubator and cooled to room temperature. 40 μl of Nano-GloHiBiT Lytic Detection Reagent (Promega, Catalog #N3040) was added to each well. Plates were placed on an orbital shaker (600 rpm) for 20 minutes. Luminescence was measured using an Envsion plate reader (Perkin Elmer). DC50 curves and Ymin were generated using a 4-parameter curve fit with GraphPad Prism software (Prism Corporation).
(§3) Results from the HiBiT assay (DC50 (nM) and Ymin (% remaining)) are shown below. All CK1α data was generated according to Procedure A. GSPT1 data for Examples 1-600, 603-620 and 703-705 was generated according to Procedure A. GSPT1 data for Examples 601, 621-702 and 706-735 was generated according to Procedure B.

CK1α = biological target: T1, CK1α (Homo sapiens, UniProt P48729+Q96SW2); test: HiBiT degradation assay, CK1α, Procedure A; type: cell-based; conditions: six hours incubation
T1 construct: CSNK1A1-HiBit KI HEK293(LgBit) Cells; host or cells: HEK293(LgBit) knock-in cells
Experimental: as §1, §2, §3

GSPT1, sequence (P15170 whole entry): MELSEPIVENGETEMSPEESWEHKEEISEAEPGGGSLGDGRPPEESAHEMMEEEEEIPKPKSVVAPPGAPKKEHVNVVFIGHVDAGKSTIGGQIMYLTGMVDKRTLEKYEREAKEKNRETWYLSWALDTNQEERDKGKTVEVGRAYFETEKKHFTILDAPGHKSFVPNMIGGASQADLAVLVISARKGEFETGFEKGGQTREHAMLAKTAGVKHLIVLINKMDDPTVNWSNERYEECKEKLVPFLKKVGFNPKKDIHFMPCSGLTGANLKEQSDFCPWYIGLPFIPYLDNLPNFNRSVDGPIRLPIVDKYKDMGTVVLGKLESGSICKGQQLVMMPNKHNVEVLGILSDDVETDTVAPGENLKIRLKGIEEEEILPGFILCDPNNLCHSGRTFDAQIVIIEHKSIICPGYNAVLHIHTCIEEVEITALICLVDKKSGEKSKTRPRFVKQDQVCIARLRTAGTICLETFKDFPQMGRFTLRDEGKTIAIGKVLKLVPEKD
GSPT1, sequence (Q96SW2 whole entry): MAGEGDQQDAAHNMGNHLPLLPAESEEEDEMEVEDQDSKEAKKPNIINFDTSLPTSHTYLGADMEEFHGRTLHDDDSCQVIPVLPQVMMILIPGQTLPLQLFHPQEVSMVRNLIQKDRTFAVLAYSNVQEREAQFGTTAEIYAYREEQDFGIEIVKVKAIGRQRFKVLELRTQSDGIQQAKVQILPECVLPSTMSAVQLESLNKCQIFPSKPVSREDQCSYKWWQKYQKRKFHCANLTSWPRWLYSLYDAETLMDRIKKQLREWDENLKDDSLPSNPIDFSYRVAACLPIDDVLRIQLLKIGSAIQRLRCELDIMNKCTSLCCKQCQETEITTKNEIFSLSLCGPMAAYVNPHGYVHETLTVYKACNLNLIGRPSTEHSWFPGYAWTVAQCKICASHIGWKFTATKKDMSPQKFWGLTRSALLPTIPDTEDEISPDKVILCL
GSPT1, sequence (Q16531 whole entry partner): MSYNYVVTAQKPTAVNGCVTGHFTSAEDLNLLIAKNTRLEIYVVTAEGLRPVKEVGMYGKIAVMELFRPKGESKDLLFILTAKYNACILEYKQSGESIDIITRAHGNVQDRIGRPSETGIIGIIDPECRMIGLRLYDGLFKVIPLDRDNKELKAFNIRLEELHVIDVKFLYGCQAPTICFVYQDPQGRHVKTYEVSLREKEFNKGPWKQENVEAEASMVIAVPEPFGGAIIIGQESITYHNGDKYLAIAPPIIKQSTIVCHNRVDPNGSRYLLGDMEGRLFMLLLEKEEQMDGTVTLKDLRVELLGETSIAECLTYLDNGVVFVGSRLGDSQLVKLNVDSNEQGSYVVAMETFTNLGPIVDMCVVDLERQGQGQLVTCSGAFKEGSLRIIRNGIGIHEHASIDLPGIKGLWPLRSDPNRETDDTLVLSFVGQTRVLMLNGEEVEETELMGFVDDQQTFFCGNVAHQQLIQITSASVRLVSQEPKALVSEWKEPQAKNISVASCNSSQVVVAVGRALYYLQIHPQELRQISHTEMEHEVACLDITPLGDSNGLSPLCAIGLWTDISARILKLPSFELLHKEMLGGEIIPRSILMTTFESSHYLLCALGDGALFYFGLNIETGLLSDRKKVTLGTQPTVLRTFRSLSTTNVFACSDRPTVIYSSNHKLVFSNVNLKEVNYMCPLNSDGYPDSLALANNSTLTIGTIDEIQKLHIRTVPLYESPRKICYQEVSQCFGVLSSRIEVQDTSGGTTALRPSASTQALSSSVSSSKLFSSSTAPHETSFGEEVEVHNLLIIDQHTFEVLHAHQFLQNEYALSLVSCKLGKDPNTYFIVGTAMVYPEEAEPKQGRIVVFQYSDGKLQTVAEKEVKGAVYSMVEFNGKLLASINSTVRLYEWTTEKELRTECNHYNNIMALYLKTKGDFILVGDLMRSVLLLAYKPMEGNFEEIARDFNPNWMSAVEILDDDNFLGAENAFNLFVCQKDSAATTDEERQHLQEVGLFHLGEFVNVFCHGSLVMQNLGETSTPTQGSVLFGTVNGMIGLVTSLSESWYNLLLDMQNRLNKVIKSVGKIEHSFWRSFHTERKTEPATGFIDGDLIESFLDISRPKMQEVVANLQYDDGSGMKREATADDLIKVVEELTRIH
T1 sequence (P48729 whole entry): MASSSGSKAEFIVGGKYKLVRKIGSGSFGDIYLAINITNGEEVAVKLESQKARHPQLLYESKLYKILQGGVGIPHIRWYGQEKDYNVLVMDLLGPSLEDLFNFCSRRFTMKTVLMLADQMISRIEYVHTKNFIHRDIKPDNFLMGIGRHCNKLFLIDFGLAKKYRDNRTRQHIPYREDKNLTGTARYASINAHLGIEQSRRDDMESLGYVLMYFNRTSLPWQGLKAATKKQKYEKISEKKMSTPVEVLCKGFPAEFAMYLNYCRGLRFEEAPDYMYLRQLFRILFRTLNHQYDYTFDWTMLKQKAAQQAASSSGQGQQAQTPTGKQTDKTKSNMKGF
T1 sequence (Q96SW2 whole entry): as the sequence (Q96SW2 whole entry) above
T1 sequence (Q16531 whole entry partner): as the sequence (Q16531 whole entry partner) above

| Compound | DC50 (GSPT1) | GSPT1 Ymin (GSPT1) | CK1α Ymin (CK1α) | DC50 (CK1α) |
| --- | --- | --- | --- | --- |
| O=C1CCC(N2Cc3cc(-c4c[nH]nc4C4CC4)ccc3C2=O)C(=O)N1 (stereo not shown) [Example 47, 3-(5-(3-Cyclopropyl-1H-pyrazol-4-yl)-1-oxoisoindolin-2-yl)piperidine-2,6-dione] | ≥ 25 nM | F (F = >75-100% remaining) | E (E = >25-75% remaining) | ≥ 25 nM |
| Cn1c(C2CCCCC2)nc(-c2ccc3c(c2)CN(C2CCC(=O)NC2=O)C3=O)c1-c1ccccc1 (stereo not shown) [Example 49, 3-(5-(2-Cyclohexyl-1-methyl-5-phenyl-1H-imidazol-4-yl)-1-oxoisoindolin-2-yl)piperidine-2,6-dione] | < 25 nM | F (F = >75-100% remaining) | C (C = 0-10% remaining) | < 25 nM |
| Cn1ncc(-c2ccc3c(c2)CN(C2CCC(=O)NC2=O)C3=O)c1-c1cccc(N2CCCC2)c1 (stereo not shown) [Example 55] | ≥ 25 nM | F (F = >75-100% remaining) | E (E = >25-75% remaining) | < 25 nM |
| CNC(=O)c1ccc(-c2c(-c3ccc4c(c3)CN(C3CCC(=O)NC3=O)C4=O)cnn2C)cc1 (stereo not shown) [Example 56] | ≥ 25 nM | F (F = >75-100% remaining) | D (D = >10- 25% remaining) | ≥ 25 nM |
| Cn1ncc(-c2ccc3c(c2)CN(C2CCC(=O)NC2=O)C3=O)c1-c1ccc(N2CCOCC2)cc1 (stereo not shown) [Example 62] | ≥ 25 nM | F (F = >75-100% remaining) | D (D = >10- 25% remaining) | < 25 nM |
| Cn1ncc(-c2ccc3c(c2)CN(C2CCC(=O)NC2=O)C3=O)c1-c1ccc(C(F)(F)F)cc1 (stereo not shown) [Example 63] | ≥ 25 nM | F (F = >75-100% remaining) | E (E = >25-75% remaining) | < 25 nM |
| Cc1sccc1-c1c(-c2ccc3c(c2)CN(C2CCC(=O)NC2=O)C3=O)cnn1C (stereo not shown) [Example 66] | ≥ 25 nM | F (F = >75-100% remaining) | E (E = >25-75% remaining) | ≥ 25 nM |
| Cn1ncc(-c2ccc3c(c2)CN(C2CCC(=O)NC2=O)C3=O)c1-c1ccccc1F (stereo not shown) [Example 67] | ≥ 25 nM | F (F = >75-100% remaining) | E (E = >25-75% remaining) | < 25 nM |
| COc1cccc(-c2c(-c3ccc4c(c3)CN(C3CCC(=O)NC3=O)C4=O)cnn2C)c1 (stereo not shown) [Example 69] | ≥ 25 nM | F (F = >75-100% remaining) | E (E = >25-75% remaining) | < 25 nM |
| Cn1ncc(-c2ccc3c(c2)CN(C2CCC(=O)NC2=O)C3=O)c1-c1ccccc1C(F)(F)F (stereo not shown) [Example 71] | ≥ 25 nM | F (F = >75-100% remaining) | F (F = >75-100% remaining) | < 25 nM |
| Cn1ncc(-c2ccc3c(c2)CN(C2CCC(=O)NC2=O)C3=O)c1-c1cccc(F)c1F (stereo not shown) [Example 73] | ≥ 25 nM | F (F = >75-100% remaining) | E (E = >25-75% remaining) | < 25 nM |
| Cc1ccccc1-c1c(-c2ccc3c(c2)CN(C2CCC(=O)NC2=O)C3=O)cnn1C (stereo not shown) [Example 74] | ≥ 25 nM | F (F = >75-100% remaining) | E (E = >25-75% remaining) | < 25 nM |
| Cn1ncc(-c2ccc3c(c2)CN(C2CCC(=O)NC2=O)C3=O)c1-c1cc(F)ccc1F (stereo not shown) [Example 77] | ≥ 25 nM | F (F = >75-100% remaining) | E (E = >25-75% remaining) | < 25 nM |
| Cc1ccc(-c2c(-c3ccc4c(c3)CN(C3CCC(=O)NC3=O)C4=O)cnn2C)cc1Cl (stereo not shown) [Example 80] | ≥ 25 nM | F (F = >75-100% remaining) | E (E = >25-75% remaining) | < 25 nM |

Further lines, results first:

| DC50 (GSPT1) | GSPT1 Ymin (GSPT1) | CK1α Ymin (CK1α) | DC50 (CK1α) | Compound |
| --- | --- | --- | --- | --- |
| ≥ 25 nM | F (F = >75-100% remaining) | C (C = 0-10% remaining) | < 25 nM | Cn1c(C2CC2)nc(-c2ccc3c(c2)CN(C2CCC(=O)NC2=O)C3=O)c1-c1ccncc1 (stereo not shown) [Example 45, 3-(5-(2-Cyclopropyl-1-methyl-5-(pyridin-4-yl)-1H-imidazol-4-yl)-1-oxoisoindolin-2-yl)piperidine-2,6-dione] |
| ≥ 25 nM | F (F = >75-100% remaining) | C (C = 0-10% remaining) | < 25 nM | Cn1c(C2CCOCC2)nc(-c2ccc3c(c2)CN(C2CCC(=O)NC2=O)C3=O)c1-c1ccccc1 (stereo not shown) [Example 50, 3-(5-(1-methyl-5-phenyl-2-(tetrahydro-2H-pyran-4-yl)-1H-imidazol-4-yl)-1-oxoisoindolin-2-yl)piperidine-2,6-dione] |
| ≥ 25 nM | E (E = >25-75% remaining) | C (C = 0-10% remaining) | < 25 nM | O=C1CCC(N2Cc3cc(-c4nc(C(F)(F)F)[nH]c4-c4ccccc4)ccc3C2=O)C(=O)N1 (stereo not shown) [Example 53, 3-(1-Oxo-5-(5-phenyl-2-(trifluoromethyl)-1H-imidazol-4-yl)isoindolin-2-yl)piperidine-2,6-dione] |
| ≥ 25 nM | F (F = >75-100% remaining) | C (C = 0-10% remaining) | < 25 nM | O=C1CCC(N2Cc3cc(-c4c[nH]c(-c5ccccc5)n4)ccc3C2=O)C(=O)N1 (stereo not shown) [Example 54, 3-(1-Oxo-5-(2-phenyl-1H-imidazol-4-yl)isoindolin-2-yl)piperidine-2,6-dione] |
| ≥ 25 nM | F (F = >75-100% remaining) | E (E = >25-75% remaining) | ≥ 25 nM | Cn1ncc(-c2ccc3c(c2)CN(C2CCC(=O)NC2=O)C3=O)c1-c1ccc(C#N)cc1 (stereo not shown) [Example 57] |
| ≥ 25 nM | F (F = >75-100% remaining) | E (E = >25-75% remaining) | ≥ 25 nM | Cn1ncc(-c2ccc3c(c2)CN(C2CCC(=O)NC2=O)C3=O)c1-c1ccc(F)c(C#N)c1 (stereo not shown) [Example 58] |
| ≥ 25 nM | F (F = >75-100% remaining) | E (E = >25-75% remaining) | < 25 nM | Cn1ncc(-c2ccc3c(c2)CN(C2CCC(=O)NC2=O)C3=O)c1-c1cccc(C(F)F)c1 (stereo not shown) [Example 59] |
| ≥ 25 nM | F (F = >75-100% remaining) | E (E = >25-75% remaining) | < 25 nM | CC(C)c1ccccc1-c1c(-c2ccc3c(c2)CN(C2CCC(=O)NC2=O)C3=O)cnn1C (stereo not shown) [Example 60] |
| ≥ 25 nM | F (F = >75-100% remaining) | E (E = >25-75% remaining) | < 25 nM | Cn1ncc(-c2ccc3c(c2)CN(C2CCC(=O)NC2=O)C3=O)c1-c1ccc(OCc2ccccc2)cc1 (stereo not shown) [Example 61] |
| ≥ 25 nM | F (F = >75-100% remaining) | D (D = >10- 25% remaining) | < 25 nM | COc1ccc(-c2c(-c3ccc4c(c3)CN(C3CCC(=O)NC3=O)C4=O)cnn2C)c(Cl)c1 (stereo not shown) [Example 65] |
| ≥ 25 nM | F (F = >75-100% remaining) | D (D = >10- 25% remaining) | < 25 nM | Cn1ncc(-c2ccc3c(c2)CN(C2CCC(=O)NC2=O)C3=O)c1-c1ccc(Cl)s1 (stereo not shown) [Example 68] |
| ≥ 25 nM | F (F = >75-100% remaining) | C (C = 0-10% remaining) | < 25 nM | COc1ccc(-c2c(-c3ccc4c(c3)CN(C3CCC(=O)NC3=O)C4=O)cnn2C)cc1 (stereo not shown) [Example 70] |
| ≥ 25 nM | F (F = >75-100% remaining) | E (E = >25-75% remaining) | ≥ 25 nM | Cn1ncc(-c2ccc3c(c2)CN(C2CCC(=O)NC2=O)C3=O)c1-c1ccc(Cl)c(Cl)c1 (stereo not shown) [Example 75] |
| ≥ 25 nM | F (F = >75-100% remaining) | D (D = >10- 25% remaining) | < 25 nM | Cc1cccc(-c2c(-c3ccc4c(c3)CN(C3CCC(=O)NC3=O)C4=O)cnn2C)c1 (stereo not shown) [Example 76] |
| ≥ 25 nM | F (F = >75-100% remaining) | E (E = >25-75% remaining) | < 25 nM | COc1cc(-c2c(-c3ccc4c(c3)CN(C3CCC(=O)NC3=O)C4=O)cnn2C)ccc1C (stereo not shown) [Example 78] |
| ≥ 25 nM | F (F = >75-100% remaining) | E (E = >25-75% remaining) | < 25 nM | Cn1ncc(-c2ccc3c(c2)CN(C2CCC(=O)NC2=O)C3=O)c1-c1ccc(Cl)cc1F (stereo not shown) [Example 79] |
| ≥ 25 nM | F (F = >75-100% remaining) | E (E = >25-75% remaining) | ≥ 25 nM | Cn1ncc(-c2ccc3c(c2)CN(C2CCC(=O)NC2=O)C3=O)c1-c1ccc(OCc2ccccc2)c(Cl)c1 (stereo not shown) [Example 81] |
